From patent US6596889B1, “Nitrates of bis-platinum complexes with polyamine ligands” (Novuspharma S.p.A., priority 1999, dated 2003)
Counter-ions that a name gives are not always drawn.

Test: HPLC stability following heating at 40° C. for 12 days under atmospheric pressure
Format: physicochemical
Method: column: Lichrospher RP8 (5 μm), 125×4 mm
The following table reports the HPLC data concerning the stability of Compound 1 and of Compound A (prepared as described in example 16 of WO 98/03519) following heating at 40° C. for 12 days under atmospheric pressure.
The used chromatographic method is that described in Example 3 and Example 4. The values of […] are in percent area.

[1] = 12 days 40° C., atmospheric pressure

Compound | HPLC mean peak area [1] | main impurity, retention time 7 min, HPLC area [1] | main impurity, retention time 8 min, HPLC area [1] | main impurity, retention time 12 min, HPLC area [1] | main impurity, retention time 14 min, HPLC area [1] | main impurity, retention time 30 min, HPLC area [1] | main impurity, retention time 31 min, HPLC area [1] | HPLC mean peak area (t = 0) | main impurity, retention time 7 min, HPLC area (t = 0) | main impurity, retention time 8 min, HPLC area (t = 0) | main impurity, retention time 12 min, HPLC area (t = 0) | main impurity, retention time 14 min, HPLC area (t = 0) | main impurity, retention time 30 min, HPLC area (t = 0) | main impurity, retention time 31 min, HPLC area (t = 0)
[NH2][Pt+]([NH2])([Cl])[NH]CCC[NH2+]CCCC[NH2+]CCC[NH][Pt+]([NH2])([NH2])[Cl] [Compound 1, bis{trans(diammine)(chloro)platinum(II)}-μ-(1,12-diamino-4,9-diazadodecane-N^1, N^12) dinitrate salt.2HNO3] | 98.4 percent area | 0.1 percent area | 0.1 percent area | 0.2 percent area | 0.9 percent area | <0.1 percent area | 0.2 percent area | 98.5 percent area | 0.1 percent area | 0.1 percent area | 0.1 percent area | 0.8 percent area | <0.1 percent area | –
bis{trans(diammine)(chloro)platinum(II)}-μ-(1,12-diamino-4,9-diazadodecane-N^1, N^12)dichloride salt.2HCl [Compound A] | 89.8 percent area | 0.8 percent area | 1.6 percent area | 0.6 percent area | 0.8 percent area | 2.8 percent area | 1.7 percent area | 92.5 percent area | 0.1 percent area | 0.2 percent area | 0.3 percent area | 1.3 percent area | 2.3 percent area | 0.7 percent area
